Reference: article PMC3070160 (Biochemistry, 2010)

Key:
Type in all cases: binding
[1] = target: T1, yCBS (yeast cystathionine β-synthase) (Saccharomyces cerevisiae, UniProt P32582); experiment: double-mixing stopped-flow, […] nm decay, koff/kon
T1 sequence (P32582 1-507): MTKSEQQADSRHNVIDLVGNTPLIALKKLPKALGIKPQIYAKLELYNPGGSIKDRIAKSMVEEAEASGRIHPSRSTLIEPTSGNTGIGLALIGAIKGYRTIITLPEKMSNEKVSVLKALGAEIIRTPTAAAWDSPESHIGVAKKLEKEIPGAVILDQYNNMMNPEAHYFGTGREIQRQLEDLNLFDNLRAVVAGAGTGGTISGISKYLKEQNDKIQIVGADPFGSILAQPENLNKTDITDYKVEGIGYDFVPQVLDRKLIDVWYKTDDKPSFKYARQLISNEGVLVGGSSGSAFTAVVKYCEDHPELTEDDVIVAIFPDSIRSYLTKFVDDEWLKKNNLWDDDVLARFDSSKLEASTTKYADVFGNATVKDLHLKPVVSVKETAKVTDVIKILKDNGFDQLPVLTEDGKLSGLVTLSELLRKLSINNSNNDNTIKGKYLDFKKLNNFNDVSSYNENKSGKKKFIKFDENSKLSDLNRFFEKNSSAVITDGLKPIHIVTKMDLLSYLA

[2] = target: T1, yCBS (yeast cystathionine β-synthase); experiment: stopped-flow, aminoacrylate formation at […] nm, hyperbolic fit of kobs
[3] = target: T1, yCBS (yeast cystathionine β-synthase); experiment: UV-visible spectrum of enzyme as isolated; conditions: internal aldimine with Lys53; covalent

Structure (SMILES): N[C@@H](CCS)C(=O)O [L-homocysteine]
- Kd [1]: 370 ± 20 µM

Structure (SMILES): N[C@@H](CO)C(=O)O [L-serine]
- Kd [2]: 14.4 ± 1.7 mM

Structure (SMILES): Cc1ncc(COP(=O)(O)O)c(C=O)c1O [PLP]
- UV-visible spectrum of enzyme as isolated [3]: protonated Schiff base (internal aldimine) between Lys53 in the active site and the PLP
